Measurements as given in PubChem BioAssay AID1963826 (Molecular Pharmacology Branch, DTP, NCI, 2024).

System: 926638-142-R-J1-PDC complex spheroid viability
Assay: Anticancer human tumor 926638-142-R-J1-PDC patient-derived endometrial carcinoma cell line growth inhibition [POLQ]
Settings: for IC50: curve of first compound; for viability, T/C: stronger effect = lower value
Method: Multicellular complex tumor spheroid response to Polymerase (POL) inhibitors (novobiocin, ART-558, RP6685) in combination with a variety of drugs and investigational agents in selected tumor cell lines
The POL inhibitors (novobiocin, ART-558, and RP6685) were evaluated both individually and in combination with standard of care and investigational anticancer small molecules within a complex spheroid model of solid tumors. . Complex spheroids include a stromal component modeled by human endothelial cells (HUVEC) and fibroblasts modeled by human mesenchymal stem cells (MSCs). The concentration ranges selected for each drug and investigational agent were based upon clinically achievable concentrations if the clinical Cmax of the agent was known.
Compounds. The drugs and investigational agents: novobiocin (NSC847541), ART-558 (NSC835418), RP-6685 (NSC848927), peposertib (NSC802822), ceralasertib (NSC780249), elimusertib (NSC800525), camonsertib (NSC841442), AZD-1390 (NSC803789), olaparib (NSC753686), talazoparib (NSC767125), rucaparib (NSC756644), sotorasib (NSC818433), MRTX-1133 (NSC836407), SN-38 (NSC673596), topotecan (NSC609699), epotoside (NSC141540), doxorubicin (NSC123127), gemcitabine (NSC613327), 5-fluorouracil (NSC19893), paclitaxel (NSC125973), vemurafenib (NSC761431), MSA-2 (NSC828583), SN-011 (NSC837082), adavosertib (NSC754352), prexasertib (NSC758257), carboplatin (NSC241240) and oxaliplatin (NSC266046), were obtained from the National Cancer Institute (NCI) Developmental Therapeutics Program Chemical Repository (21). The FDA-approved anticancer drug set is available from the Developmental Therapeutics Program at https://dtp.cancer.gov/organization/dscb/obtaining/. […] The stock solutions were prepared in dimethyl sulfoxide (DMSO, Sigma-Aldrich, St. Louis, MO, cat. D2650), except for the platinum compounds which were prepared in saline (Quality Biological, Gaithersburg, MD, cat. 114-055-101), at 800-fold the tested concentration and stored at -70 degrees C prior to their use. All drugs and investigational agents were tested over a range starting from a high concentration at or near the clinical Cmax and decreasing in half-log increments. If the clinical Cmax for an agent had not been determined, the highest concentration tested was 10 microM, except for SN-38, which was tested at a high concentration of 1 microM.
Cell Culture. All cells were maintained in an incubator at 37 degrees C and 5% CO2 with 95% humidity. The PDC lines were cultured according to standard operating procedures established by the NCI PDMR (https://pdmr.cancer.gov). Table 3 of the manuscript, lists the cell lines along with the number of the three cell types plated to form the mct-spheroids and media for tumor cell growth. After thawing, all PDC lines, except 997537-175-T-J1-PDC and 415267-285-R-J2-PDC, were cultured in Matrigel-coated flasks prepared with a working solution of 1X Ham's F-12 nutrient mix, without supplementation (Thermo Fisher Scientific, cat. 11765054), 100 U/mL penicillin-streptomycin (Thermo Fisher Scientific, cat. 15140122), and 2.5% Matrigel (Corning Inc., Corning, NY, cat. 354248) for the first three passages. The two PDC lines 997537-175-T-J1-PDC and 415267-285-R-J2-PDC were cultured on uncoated flasks. The 857933-349-R-J2-PDC line was cultured in 6C/Colon 1B media containing advanced DMEM/F-12 (Thermo Fisher Scientific, cat. 12634028), 10 mM HEPES (Thermo Fisher Scientific, cat. 15630080), 1X GlutaMAX supplement (Thermo Fisher Scientific, cat. 35050061), 0.1 mg/mL primocin (InvivoGen, San Diego, CA, cat. ant-pm-2), 10% defined fetal bovine serum, heat inactivated (HyClone Laboratories Inc., Logan, UT, cat. SH30070.03HI), 50% L-WRN conditioned media (ATCC, cat. CRL-3276), 1.25 mM N-Acetyl-L-cysteine (Sigma-Aldrich, cat. A9165), 10 mM nicotinamide (Sigma-Aldrich, cat. N0636), 1X B-27 supplement (Thermo Fisher Scientific, cat. 17504044), 1X N-2 supplement (Thermo Fisher Scientific, cat. […]

[1] = second compound 0.0316 µM, first compound 0.0316 µM
[2] = second compound 0.0316 µM, first compound 0.1 µM
[3] = second compound 0.0316 µM, first compound 0.316 µM
[4] = second compound 0.0316 µM, first compound 1 µM
[5] = second compound 0.1 µM, first compound 0.0316 µM
[6] = second compound 0.1 µM, first compound 0.1 µM
[7] = second compound 0.1 µM, first compound 0.316 µM
[8] = second compound 0.1 µM, first compound 1 µM
[9] = second compound 0.316 µM, first compound 0.0316 µM
[10] = second compound 0.316 µM, first compound 0.1 µM
[11] = second compound 0.316 µM, first compound 0.316 µM
[12] = second compound 0.316 µM, first compound 1 µM
[13] = second compound 1 µM, first compound 0.0316 µM
[14] = second compound 1 µM, first compound 0.1 µM
[15] = second compound 1 µM, first compound 0.316 µM
[16] = second compound 1 µM, first compound 1 µM
[17] = second compound 3.16 µM, first compound 0.0316 µM
[18] = second compound 3.16 µM, first compound 0.1 µM
[19] = second compound 3.16 µM, first compound 0.316 µM
[20] = second compound 3.16 µM, first compound 1 µM
[21] = second compound 10 µM, first compound 0.0316 µM
[22] = second compound 10 µM, first compound 0.1 µM
[23] = second compound 10 µM, first compound 0.316 µM
[24] = second compound 10 µM, first compound 1 µM
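Note: spheroids exposed to drugs for one week before readout.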
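Throughout, for viability, T/C: percent viability relative to DMSO vehicle control wells set as 100%.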

Question: `COc1cccc2c1C(=O)c1c(O)c3c(c(O)c1C2=O)CC(O)(C(=O)CO)CC3OC1CC(N)C(O)C(C)O1` (centres undefined) + Cc1cccc(N(C)C(=O)C2C(O)CCN2c2nc(C)cc(C(F)(F)F)c2C#N)c1 was tested. Which IC50 (second compound 0.0316 µM) did it give?
Answer: 133 nM

Question: What about the IC50 (second compound 0.1 µM) of the same molecule?
Answer: 144 nM

Question: And the IC50 (second compound 0.316 µM)?
Answer: 138 nM

Question: And the IC50 (second compound 1 µM)?
Answer: 102 nM

Question: What about the IC50 (second compound 3.16 µM) of the same molecule?
Answer: 115 nM

Question: And the IC50 (second compound 10 µM)?
Answer: 124 nM

Question: What about the viability, T/C [1] of the same molecule?
Answer: 76.8%

Question: And the viability, T/C [2]?
Answer: 59.4%

Question: And the viability, T/C [3]?
Answer: 21%

Question: And the viability, T/C [4]?
Answer: 2.89%

Question: What about the viability, T/C (second compound 0.0316 µM, first compound 3.16 µM) of the same molecule?
Answer: 0.19%

Question: What about the viability, T/C (second compound 0.0316 µM, first compound 10 µM) of the same molecule?
Answer: 0.26%

Question: And the viability, T/C [5]?
Answer: 68.6%

Question: And the viability, T/C [6]?
Answer: 65%

Question: And the viability, T/C [7]?
Answer: 18.5%

Question: What about the viability, T/C [8] of the same molecule?
Answer: 3.26%

Question: And the viability, T/C (second compound 0.1 µM, first compound 3.16 µM)?
Answer: 0.2%

Question: What about the viability, T/C (second compound 0.1 µM, first compound 10 µM) of the same molecule?
Answer: 0.33%

Question: What about the viability, T/C [9] of the same molecule?
Answer: 79.3%

Question: What about the viability, T/C [10] of the same molecule?
Answer: 61.9%

Question: And the viability, T/C [11]?
Answer: 19%

Question: What about the viability, T/C [12] of the same molecule?
Answer: 2.18%

Question: And the viability, T/C (second compound 0.316 µM, first compound 3.16 µM)?
Answer: 0.15%

Question: What about the viability, T/C (second compound 0.316 µM, first compound 10 µM) of the same molecule?
Answer: 0.25%

Question: And the viability, T/C [13]?
Answer: 71.6%

Question: And the viability, T/C [14]?
Answer: 50.4%

Question: And the viability, T/C [15]?
Answer: 17.4%

Question: And the viability, T/C [16]?
Answer: 2.2%

Question: And the viability, T/C (second compound 1 µM, first compound 3.16 µM)?
Answer: 0.14%

Question: And the viability, T/C (second compound 1 µM, first compound 10 µM)?
Answer: 0.24%

Question: And the viability, T/C [17]?
Answer: 82.1%

Question: And the viability, T/C [18]?
Answer: 54.8%

Question: And the viability, T/C [19]?
Answer: 15.1%

Question: And the viability, T/C [20]?
Answer: 2.08%

Question: What about the viability, T/C (second compound 3.16 µM, first compound 3.16 µM) of the same molecule?
Answer: 0.25%

Question: What about the viability, T/C (second compound 3.16 µM, first compound 10 µM) of the same molecule?
Answer: 0.32%

Question: What about the viability, T/C [21] of the same molecule?
Answer: 70.5%

Question: What about the viability, T/C [22] of the same molecule?
Answer: 58.4%

Question: And the viability, T/C [23]?
Answer: 14.2%

Question: And the viability, T/C [24]?
Answer: 1.62%

Question: And the viability, T/C (second compound 10 µM, first compound 3.16 µM)?
Answer: 0.26%

Question: What about the viability, T/C (second compound 10 µM, first compound 10 µM) of the same molecule?
Answer: 0.24%

Question: Which results are given for `COc1cccc(OCCCN)c1-c1cc(Nc2cnc(C#N)cn2)n[nH]1` + Nc1ccc(C#CCN(C(=O)Cc2ncc(C(F)(F)F)cc2C(F)(F)F)c2ccc(F)cc2)nn1?
Answer: IC50 (second compound 0.0316 µM): 70.7 nM; IC50 (second compound 0.1 µM): 112 nM; IC50 (second compound 0.316 µM): 94.9 nM; IC50 (second compound 1 µM): 77.6 nM; IC50 (second compound 3.16 µM): 40.6 nM; IC50 (second compound 10 µM): 65.4 nM; viability, T/C (second compound 0.0316 µM, first compound 0.00316 µM): 115%; viability, T/C (second compound 0.0316 µM, first compound 0.01 µM): 76.4%; viability, T/C [1]: 56%; viability, T/C [2]: 47.3%; viability, T/C [3]: 49.3%; viability, T/C [4]: 32.3%; viability, T/C (second compound 0.1 µM, first compound 0.00316 µM): 115%; viability, T/C (second compound 0.1 µM, first compound 0.01 µM): 84.6%; viability, T/C [5]: 62.7%; viability, T/C [6]: 50.7%; viability, T/C [7]: 48.4%; viability, T/C [8]: 31.3%; viability, T/C (second compound 0.316 µM, first compound 0.00316 µM): 111%; viability, T/C (second compound 0.316 µM, first compound 0.01 µM): 79.2%; viability, T/C [9]: 60.4%; viability, T/C [10]: 48.3%; viability, T/C [11]: 48.2%; viability, T/C [12]: 36.7%; viability, T/C (second compound 1 µM, first compound 0.00316 µM): 121%; viability, T/C (second compound 1 µM, first compound 0.01 µM): 78.5%; viability, T/C [13]: 60.6%; viability, T/C [14]: 45.9%; viability, T/C [15]: 48.5%; viability, T/C [16]: 31.6%; viability, T/C (second compound 3.16 µM, first compound 0.00316 µM): 89.5%; viability, T/C (second compound 3.16 µM, first compound 0.01 µM): 73.4%; viability, T/C [17]: 49.5%; viability, T/C [18]: 43.4%; viability, T/C [19]: 45.2%; viability, T/C [20]: 31.7%; viability, T/C (second compound 10 µM, first compound 0.00316 µM): 86.6%; viability, T/C (second compound 10 µM, first compound 0.01 µM): 71.7%; viability, T/C [21]: 50.2%; viability, T/C [22]: 44.2%; viability, T/C [23]: 51.3%; viability, T/C [24]: 27.1%
